Data on ten compounds can be found in PubChem BioAssay (NCI).

Among the test systems are SF-295 CNS; SNB-75 CNS; SK-MEL-28 melanoma; UO-31 renal; A549 NSCLC; RPMI-8226 leukemia; DMS 273 small cell lung; SF-539 CNS; SW-620 colon; KM20L2 colon; SF-268 CNS.
Common to all, as to experiment: DTP human tumour cell line panel, 48 h

Where “and” joins values, the source holds several entries; their conditions need not be identical. Identical values can stand only once.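 Cultured in 96-well plates, cells were exposed to test compound for 48 hours across five concentrations. GI50: concentration for 50% inhibition of growth. TGI marks complete inhibition of growth.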

For the compound `COc1c(O)c2c3c(c(C)cc(O)c3c1O)C(=O)C(O)(C(C)(C)C(C)=O)C2=O` (stereo unspecified), the GI50 (as a rule, the concentration at which growth is held to half of that of the control) in the experiment on SF-295 CNS is 25.2 µM and > 100 µM. Also, the TGI – broadly, the concentration at which net growth stops – is 71.2 µM and > 100 µM in the experiment on SF-295 CNS; above 100 µM in the experiment on SNB-75 CNS; above 100 µM in the experiment with SK-MEL-28 melanoma; above 100 µM with UO-31 renal; above 100 µM in the experiment on A549 NSCLC; above 100 µM in the experiment on RPMI-8226 leukemia. In addition, the TGI in the experiment with DMS 273 small cell lung, in the experiment with SF-539 CNS, in the experiment with SW-620 colon, in the experiment with KM20L2 colon and in the experiment with SF-268 CNS was above 100 µM in each case.

In the case of `O=C1NCCS(=O)(=O)N[C@@H](CC2=CC=CCC2)C(=O)N2CCCC12` (stereo partly specified), the TGI in the experiment on SF-295 CNS, with SNB-75 CNS, with SK-MEL-28 melanoma, in the experiment with UO-31 renal, in the experiment with A549 NSCLC and with RPMI-8226 leukemia was above 100 µM each time. Besides, the TGI in the experiment on DMS 273 small cell lung, in the experiment on SF-539 CNS, in the experiment on SW-620 colon, in the experiment with KM20L2 colon and in the experiment on SF-268 CNS was above 100 µM in each case.

In the case of `Cc1cccc(C2=C/C(=C(\SS/C(C(=O)c3ccc(OCC(=O)O)c(Cl)c3Cl)=C3\C=C(c4cccc(C)c4)SS3)C(=O)c3ccc(OCC(=O)O)c(Cl)c3Cl)SS2)c1`, the TGI in the experiment with SF-295 CNS is above 85.6 µM; with SNB-75 CNS it was above 83.5 µM; in the experiment on SK-MEL-28 melanoma it was 87.4 µM; in the experiment on UO-31 renal it was 32.2 µM; in the experiment with A549 NSCLC it was above 100 µM; with RPMI-8226 leukemia it was 41.4 µM. Also, the TGI in the experiment with DMS 273 small cell lung is 83.6 µM; in the experiment on SF-539 CNS, 39.9 µM; in the experiment with SW-620 colon, 49.8 µM; with KM20L2 colon it was above 100 µM; in the experiment on SF-268 CNS, 39.6 µM.

With `CSC(=Nc1ccccc1)N(c1ccccc1)c1nc(=[N+](C)C)ss1`, the TGI with SF-295 CNS was found to be 25.1 µM; in the experiment on SNB-75 CNS it was 16.3 µM; in the experiment with SK-MEL-28 melanoma, 2.83 µM; in the experiment on UO-31 renal, 28.3 µM; in the experiment with A549 NSCLC, 33.7 µM; in the experiment with RPMI-8226 leukemia, 3.14 µM. Moreover, the TGI in the experiment on DMS 273 small cell lung worked out at 2.2 µM; in the experiment on SF-539 CNS, 14.8 µM; in the experiment on SW-620 colon it was 3.27 µM; with KM20L2 colon, 13.7 µM; in the experiment with SF-268 CNS, 21.6 µM.

As to `CCN1CCCC(NCc2c3ccccc3c(CNC3CCCN(CC)C3)c3ccccc23)C1` (stereo unspecified), the TGI was 14.7 µM with SF-295 CNS; 25 µM in the experiment on SNB-75 CNS; 25.9 µM with SK-MEL-28 melanoma; 53.4 µM in the experiment on UO-31 renal; above 100 µM in the experiment on A549 NSCLC; 54.3 µM in the experiment on RPMI-8226 leukemia. Also, the concentration for total growth inhibition (TGI) with DMS 273 small cell lung is 18.2 µM; in the experiment on SF-539 CNS it was 35.7 µM; in the experiment with SW-620 colon it was 29.4 µM; with KM20L2 colon it was 20.9 µM; in the experiment with SF-268 CNS, 38.4 µM.

In the case of `CC1=NN(C(=O)CC(=O)Nc2ccccc2F)C(=O)C1N=Nc1ccccc1[N+](=O)[O-]` (stereo unspecified), the total growth inhibition concentration (TGI) with SF-295 CNS, with SNB-75 CNS, in the experiment with SK-MEL-28 melanoma, in the experiment on UO-31 renal, in the experiment with A549 NSCLC and in the experiment on RPMI-8226 leukemia was above 100 µM each time. Further, the TGI with DMS 273 small cell lung, in the experiment with SF-539 CNS, with SW-620 colon, with KM20L2 colon and with SF-268 CNS was above 100 µM throughout.

As to `C=Cc1ccc(C)[n+](C[Si](C)(C)O[Si](C)(C)C[n+]2cc(C=C)ccc2C)c1`, the TGI with SF-295 CNS, in the experiment on SNB-75 CNS, in the experiment on SK-MEL-28 melanoma, in the experiment on UO-31 renal, with A549 NSCLC and in the experiment with RPMI-8226 leukemia was above 100 µM each time. For the same compound, the TGI in the experiment on DMS 273 small cell lung, in the experiment on SF-539 CNS, with SW-620 colon, in the experiment on KM20L2 colon and in the experiment on SF-268 CNS was above 100 µM in each case.

Take `O=C1Sc2ccccc2C(=O)N2CSCC12` (stereo unspecified): the TGI in the experiment on SF-295 CNS, with SNB-75 CNS, in the experiment on SK-MEL-28 melanoma, in the experiment on UO-31 renal, in the experiment with A549 NSCLC and in the experiment with RPMI-8226 leukemia was above 100 µM each time. The TGI with DMS 273 small cell lung, in the experiment on SF-539 CNS, with SW-620 colon, with KM20L2 colon and with SF-268 CNS was above 100 µM each time.

Consider `O=c1[nH]cnc(NC2C=C(CO)C(O)C2O)c1[N+](=O)[O-]` (stereo unspecified), for which the TGI was above 100 µM with SF-295 CNS; above 100 µM in the experiment with SNB-75 CNS; above 100 µM with SK-MEL-28 melanoma; above 100 µM in the experiment on UO-31 renal; above 100 µM with A549 NSCLC; above 71.3 µM in the experiment on RPMI-8226 leukemia. Besides, the TGI was above 66.1 µM in the experiment on DMS 273 small cell lung; above 100 µM with SF-539 CNS; above 62 µM with SW-620 colon; above 100 µM in the experiment on KM20L2 colon; above 100 µM in the experiment with SF-268 CNS.

As for `ClC(Cl)=C1C(=C(Cl)Cl)C(Cl)(Cl)C1(Cl)Cl`, the TGI was 7.24 µM in the experiment with SF-295 CNS; 13.5 µM with SNB-75 CNS; 4.06 µM in the experiment with SK-MEL-28 melanoma; 9.07 µM with UO-31 renal; 25.7 µM with A549 NSCLC; 3.69 µM in the experiment on RPMI-8226 leukemia. Also, the TGI is 9.87 µM in the experiment with DMS 273 small cell lung; 6.08 µM in the experiment on SF-539 CNS; 3.75 µM in the experiment with SW-620 colon; 11.3 µM with KM20L2 colon; 9.22 µM with SF-268 CNS.
